In patent publication US6593365B1, “Diflunisal esters and related compounds” (The University of Queensland, priority 1997, dated 2003):
Where two headings read alike, the source gives them in different places. Marks after values point to notes of the source that are not given here.

Experiments:
[1] = Maximum solubility in 2% BSA Krebs-Henseleit buffer (pH 7.4); format: physicochemical; conditions: 25 1° C.
Description: The intrinsic solubility of diflunisal esters is extremely low (TABLE 2). The more lipophilic the analogue, the higher the solubility of solute under these conditions.

[2] = tested on: human platelet rich plasma; experiment: Platelet aggregation induced by arachidonic acid; format: cell-based; conditions: compound 600 µM, 37° C., arachidonic acid 200 µM
Description: Platelet aggregation studies were carried out using a single channel Lumiaggregometer (Chrono-Log Company, Haverton, Pa.) at 37° C. using human platelet-rich and platelet-poor plasma. Platelet-rich plasma (PRP) with a platelet concentration of […] (measured with a Coulter counter) was prepared by centrifuging 3.8% citrated […] (1:9) at 1,500 rpm using a (Beckman) benchtop centrifuge at room temperature for 15 minutes. Platelet-poor plasma (PPP) was prepared by further centrifuging residual blood from platelet-rich plasma at 3,000 rpm for 30 minutes. Platelet-poor plasma was also confirmed b y Coulter counting for platelet content.
Platelet aggregation studies were preceded by pipetting 0.4 mL platelet-rich plasma into a stirred aggregometer tube and calibrate to 90% of recorder. Platelet-poor plasma was set to calibrate at 10% of recorder. Platelet aggregation was initiated by the addition of a arachidonic acid (Sigma) or ADP (Sigma).
10 mM solutions of each compound (TABLE 6) were prepared in 1 mL of normal saline solution (containing 4% BSA) before use. An aliquot (400 μL) of platelet-rich plasma was pipetted into a stirred aggregometer tube at 37° C. and 30 μL of test sample added simultaneously. This mixture was preincubated for varying period (3 to 45 minutes), then arachidonic acid (AA) was added (final conc.=200 μM) to initiate platelet aggregation. If no aggregation occurred, 20 μM ADP was added to confirm the vitality of the platelets (if the platelets are vital, ADP will induce this AA-test sample-plasma mixture to aggregate). This procedure is necessary to investigate whether the non-aggregation phenomenon is due to drug inhibition or simply due to inviable platelets (unable to respond to AA). The degree of aggregation was measure by calculating the area under the turbidimetric response curve (AUC).

[3] = Intrinsic (maximum) solubility in water at pH 1.5; format: physicochemical; conditions: water at pH 1.5, 25 1° C.; U = Undetectable
Description: The pH conditions were chosen to ensure that the solubility of the unionised species was estimated. […] Lea & Febiger/Philadelphia. […] […] The solvent (9.9 mL) was then added to the test tube. […] The test tube was sonicated for 15 minutes and centrifuged for 10 minutes (3000 g at 25° C.). An aliquot was filtered (Minisart 0.45 μm filter, Satorius) and diluted with HPLC mobile phase, then assayed. The tube was stored carefully in a 25° C. water bath after sampling and the remaining suspension was again sonicated and the process repeated 7 times at four hourly intervals. In these assays, standard curves were prepared by directly dissolving the esters in mobile phase. Concentrations for standard curves ranged from 1-50 μg/mL for all compounds. Furthermore, a manual injector (Waters Model U6K) was used (20 μL sample loop) which ensured that 20 μL was consistently injected onto the column and precluded the need for an internal standard.

[4] = In vitro non-enzymatic hydrolysis in Krebs-Henseleit buffer; format: physicochemical; conditions: pH 7.4, 25° C., n=5
Description: These experiments were carried out both in Krebs-Henseleit buffer containing either no protein or 2% w/v BSA (bovine serum albumin, fraction V, Sigma) at pH 7.4 and 25±1° C.
Solutions of the derivatives in Krebs buffer (10 mL) was prepared in siliconised glass tubes. Each solution was sonicated for 5 minutes and centrifuged for 5 minutes (3000 g) at 25° C. to ensure maximum dissolution and to sediment any undissolved precipitate. About 7.5 mL of the supernatant was then transferred to a clean siliconised test tube and a 100 μL aliquot was removed and assayed. […] The rate of non-enzymatic hydrolysis (k) for each derivative was then estimated using the following equation: […]
where C1 is the concentration of the ester at any time (t), and C0 is the concentration of the ester at time zero. The half-life (t½) was determined using the formula: […]

[5] = tested on: OH. generated from Fenton's reaction; experiment: Luminol-dependent chemiluminescence induced by Fenton's reagent; format: biochemical; design: unit of the concentration uncertain; conditions: F: CL induced by Fenton's reagent, n=3
Description: CL was measured with a luminometer (Model 1250; LKB Wallac, Finland) and recorded in millivolts (Cheung et al., 1984, supra).
Fenton's reagent (FeSO4 and H2O2) was used as a standard reaction mixture for the generation of OH. (Lai and Piette, 1979, Tetrahedron Lett. 775-778):
Fe^+++H2O2→Fe^++++OH.+OH (1)
The initial reaction mixture consisted of 20 μL of 3.8 mM FeSO4.7H2O, 20 μL of 5 mg/mL luminol (Sigma), and 2 mL of 1 mM phosphate buffer in a 3 mL polystyrene cuvette. Twenty microlitres of 320 mM H2O2 was added to initiate the Fenton's reaction.
A known concentration of the ethanolic (≲1%) aspirin analogue or diflunisal ester's stock solution was added to the 1 mM phosphate buffer to prepare solutions with a final concentration of 50 μM, 250 μM or 500 μM. Twenty microlitres of these test samples was added onto the cuvette which contained the initial reaction mixture. H2O2 was added to induce CL reaction. The luminol-dependent CL response was recorded in mV by a potentiometric recorder.
(§1) CL measurements were always done in triplicate and Student's t-test used to assess the statistical significance of the difference between measurements.

[6] = tested on: in-situ perfused rat liver; experiment: In-situ rat liver perfusions, hepatic extraction (Example 4); format: in vitro ADME; conditions: protein-free Krebs-Henseleit buffer as perfusate; hepatic extraction=1- hepatic availability (F)
Description: The hepatic availability (F) for the O-acyl esters of SA and DF was determined using a once through in-situ perfused rat liver preparation (Mellick and Roberts, 1996, J Pharm Pharmacol 48:738-743). Liver was perfused with protein-free Krebs-Henseleit buffer at 30 mL/min for aspirin analogues and with Krebs-Henseleit buffer containing 2% BSA for diflunisal esters studies. Since the solubilities of the diflunisal esters in protein-free media were very low, 2% BSA were used to help to solubilize these compounds. Briefly, 50 μL of a saturated solution of the particular O-acyl SA or DF in Krebs-Henseleit buffer was injected as a bolus into the portal vein cannula. Perfusate outflow samples have collected via a fraction collector over 3 min. 100 μL of these samples was assayed by HPLC to determine the residual concentration of presented ester and the quantity of phenolic metabolite (SA or DF) collected from the perfused liver. The HPLC assay was a modification of the method used by Owen et al. (1987, J Chrom B Biomed Appl 416 293-302) and Rumble et al. (1981, J Chrom 225 252-260).
The hepatic availability (F) was calculated from the ratio of the area under the first moment curve, i.e., outflow concentration time-time profile to the area under the curve for the salicylate phenolic esters, with the assistance of the Moments Calculator 2.2 program for Macintosh computer developed by Robert Purves (1994, J Pharm Sci 83:202-205).

[7] = tested on: ischaemic/reperfusion rat livers; experiment: Ischaemic/reperfusion injury in rat livers (LDH release, bile production); design: species or system Female Sprague-Dawley rats; conditions: Rattus norvegicus
Description: Female Sprague-Dawley rats (220-250 g) were anaesthetised by interperitoneal injection of pentobarbital sodium (60 mg/kg, Boehringer Ingelhein). […] The bile duct was cannulated with a polyethylene tubing (PE-10, I.D. 0.28 mm; Clay Adams, New Jersey) and bile was collected into pre-weighed microcentrifuge tubes at 70 min intervals (in the middle of experiment and the end of experiment). The portal vein was then cannulated using a 16 G intravenous catheter and the liver was perfused via this cannula with 2% BSA Krebs-Henseleit bicarbonate buffer (pH 7.4) and oxygenated using a membrane oxygenator comprising of silastic tubing and ventilated with carbogen (95% O2/5% CO2). The perfusion system used was recirculating and employed a peristaltic pump (Cole-Parmer, Illinois).
Following a 10 min pre-ischaemia perfusion, the perfusion flow was stopped for 30 min at 37° C. with the liver being kept moist. At the end of this ischaemic phase, a known concentration of the aspirin analogue or diflunisal ester's solution (in 2% BSA Krebs-Henseleit buffer) was added into the perfusate prior to the perfusion being resumed for another 100 min. Outflow fractions were collected up to 140 min. A biochemistry autoanalyzer (Hitachi, model 747; Tokyo, Japan) was employed to determine the level of enzyme (LDH) release.
The degree of ischaemic/reperfusion injury was measured by calculating the area under the LDH release ([…]) versus time curve (AUC). […] The efficacy of each compound is expressed in terms of ED50 which represents the molar dose for 50% reduction of LDH release compared to the control. The comparison of bile production between the first stage of experiment (the first 70 min) and the second stage of experiment (the last 70 min) is also used as index of liver function during an experiment.

[8] = tested on: superoxide generated from xanthine oxidase plus xanthine reaction; experiment: Xanthine oxidase plus xanthine-induced chemiluminescence; format: biochemical; design: dose or concentration left out as unconfirmed; conditions: X: CL induced by xanthine oxidase plus xanthine
Description: To clarify the role of aspirin analogues and diflunisal esters in free radicals scavenging, the Fenton's reagent was replaced by an artificial superoxide generating system in the CL inhibition studies. This cell-free system consisted of 100 μg/mL of xanthine oxidase (Sigma) plus 0.5 μM xanthine (Sigma) (Rosen and Klebanoff, 1976, J Clin Invest 58 50-60; Cheson et al., 1976, J Clin Invest 58 789-796).
as §1

Compound	Maximum solubility [1] [mM]	Maximum solubility ([1]; mean standard deviation (n=3)) [mg/mL]	Platelet Aggregation (% of control) ([2]; preincubation 3 minutes)	Platelet Aggregation (% of control) ([2]; preincubation 5 minutes)	Platelet Aggregation (% of control) ([2]; preincubation 8 minutes)	Platelet Aggregation (% of control) ([2]; preincubation 10 minutes)	Platelet Aggregation (% of control) ([2]; preincubation 12 minutes)	Platelet Aggregation (% of control) ([2]; preincubation 15 minutes)	Platelet Aggregation (% of control) ([2]; preincubation 20 minutes)	Platelet Aggregation (% of control) ([2]; preincubation 25 minutes)	Platelet Aggregation (% of control) ([2]; preincubation 45 minutes)	Maximum solubility [3] [mM]	Hydrolysis rate constant (k) ([4]; Krebs-Henseleit buffer 0% BSA, U = Undetectable) [hour^1]	Hydrolysis rate constant (k) ([4]; Krebs-Henseleit buffer 2% BSA) [hour^1]	CL inhibition (%) ([5]; 2.5 (unit uncertain) compound)	CL inhibition (%) ([5]; 5 (unit uncertain) compound)	Hepatic extraction [6]	EC50 ([7]; C is the ED50 molar dose, read-out: log 1/C (converted)) [µM]	EC50 ([7]; molar dose for 50% reduction of LDH release compared to control, 30 min ischaemia, 100 min reperfusion, read-out: ED50 (the source's name)) [µM]	CL inhibition (%) [8] [%]
CCC(=O)Oc1ccc(-c2ccc(F)cc2F)cc1C(=O)O [Compound C3D, n-propionyldiflunisal]	10.29	3.15 ± 0.02	96.5 ± 3.1 % of control	89.3 ± 0.4 % of control	67.3 ± 0.1 % of control	49.7 ± 1.1 % of control	19.3 ± 0.5 % of control	0 % of control	0 % of control	0 % of control	0 % of control	0.01	–	–	–	–	–	–	–	–
CCC(=O)Oc1ccccc1C(=O)O [Compound C3SA, n-propionylsalicylic acid]	–	–	0 % of control	0 % of control	0 % of control	0 % of control	0 % of control	0 % of control	0 % of control	0 % of control	0 % of control	6.3	0.0147 ± 0.0025	0.0102 ± 0.0031	–	–	–	–	–	–
O=C(O)c1ccccc1O [SA, 2-hydroxybenzoic acid, reference compound]	–	–	–	–	–	–	–	–	–	–	–	–	–	–	52.9 ± 2.1	99.0 ± 1.0	0.05^c	72.4	72.6	0.2 ± 0.0
